The source of these data is patent US12065436B2, “Cardiac sarcomere inhibitors” (Cytokinetics, Inc., priority 2018, dated 2024).

This test addresses bovine cardiac myofibrils (full-length cardiac myosin ATPase in the native sarcomere) (Bos taurus (Bovine), UniProt Q9BE39). The test is described as follows: Skinned bovine cardiac myofibril ATPase assay (PK/LDH-coupled). In kind it is biochemical. To be noted: Ca2+ activating to 75% of maximal rate; for CDMF75 IC15: concentration giving 15% inhibition; for IC50: read-out: CDMF75 IC50. The essentials: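 Inhibition of steady-state ATPase read at 340 nm through a PK/LDH-coupled NADH system (0.5 mM NADH, 1.5 mM PEP). Detergent-skinned bovine cardiac myofibrils, 1 mg/mL, were tested at pH 6.8 in PIPES/MgCl2 with 50 μM ATP and calcium adjusted to give pCa50 or pCa75 activation.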

Sequence of bovine cardiac myofibrils (full-length cardiac myosin ATPase in the native sarcomere) (Q9BE39 whole entry): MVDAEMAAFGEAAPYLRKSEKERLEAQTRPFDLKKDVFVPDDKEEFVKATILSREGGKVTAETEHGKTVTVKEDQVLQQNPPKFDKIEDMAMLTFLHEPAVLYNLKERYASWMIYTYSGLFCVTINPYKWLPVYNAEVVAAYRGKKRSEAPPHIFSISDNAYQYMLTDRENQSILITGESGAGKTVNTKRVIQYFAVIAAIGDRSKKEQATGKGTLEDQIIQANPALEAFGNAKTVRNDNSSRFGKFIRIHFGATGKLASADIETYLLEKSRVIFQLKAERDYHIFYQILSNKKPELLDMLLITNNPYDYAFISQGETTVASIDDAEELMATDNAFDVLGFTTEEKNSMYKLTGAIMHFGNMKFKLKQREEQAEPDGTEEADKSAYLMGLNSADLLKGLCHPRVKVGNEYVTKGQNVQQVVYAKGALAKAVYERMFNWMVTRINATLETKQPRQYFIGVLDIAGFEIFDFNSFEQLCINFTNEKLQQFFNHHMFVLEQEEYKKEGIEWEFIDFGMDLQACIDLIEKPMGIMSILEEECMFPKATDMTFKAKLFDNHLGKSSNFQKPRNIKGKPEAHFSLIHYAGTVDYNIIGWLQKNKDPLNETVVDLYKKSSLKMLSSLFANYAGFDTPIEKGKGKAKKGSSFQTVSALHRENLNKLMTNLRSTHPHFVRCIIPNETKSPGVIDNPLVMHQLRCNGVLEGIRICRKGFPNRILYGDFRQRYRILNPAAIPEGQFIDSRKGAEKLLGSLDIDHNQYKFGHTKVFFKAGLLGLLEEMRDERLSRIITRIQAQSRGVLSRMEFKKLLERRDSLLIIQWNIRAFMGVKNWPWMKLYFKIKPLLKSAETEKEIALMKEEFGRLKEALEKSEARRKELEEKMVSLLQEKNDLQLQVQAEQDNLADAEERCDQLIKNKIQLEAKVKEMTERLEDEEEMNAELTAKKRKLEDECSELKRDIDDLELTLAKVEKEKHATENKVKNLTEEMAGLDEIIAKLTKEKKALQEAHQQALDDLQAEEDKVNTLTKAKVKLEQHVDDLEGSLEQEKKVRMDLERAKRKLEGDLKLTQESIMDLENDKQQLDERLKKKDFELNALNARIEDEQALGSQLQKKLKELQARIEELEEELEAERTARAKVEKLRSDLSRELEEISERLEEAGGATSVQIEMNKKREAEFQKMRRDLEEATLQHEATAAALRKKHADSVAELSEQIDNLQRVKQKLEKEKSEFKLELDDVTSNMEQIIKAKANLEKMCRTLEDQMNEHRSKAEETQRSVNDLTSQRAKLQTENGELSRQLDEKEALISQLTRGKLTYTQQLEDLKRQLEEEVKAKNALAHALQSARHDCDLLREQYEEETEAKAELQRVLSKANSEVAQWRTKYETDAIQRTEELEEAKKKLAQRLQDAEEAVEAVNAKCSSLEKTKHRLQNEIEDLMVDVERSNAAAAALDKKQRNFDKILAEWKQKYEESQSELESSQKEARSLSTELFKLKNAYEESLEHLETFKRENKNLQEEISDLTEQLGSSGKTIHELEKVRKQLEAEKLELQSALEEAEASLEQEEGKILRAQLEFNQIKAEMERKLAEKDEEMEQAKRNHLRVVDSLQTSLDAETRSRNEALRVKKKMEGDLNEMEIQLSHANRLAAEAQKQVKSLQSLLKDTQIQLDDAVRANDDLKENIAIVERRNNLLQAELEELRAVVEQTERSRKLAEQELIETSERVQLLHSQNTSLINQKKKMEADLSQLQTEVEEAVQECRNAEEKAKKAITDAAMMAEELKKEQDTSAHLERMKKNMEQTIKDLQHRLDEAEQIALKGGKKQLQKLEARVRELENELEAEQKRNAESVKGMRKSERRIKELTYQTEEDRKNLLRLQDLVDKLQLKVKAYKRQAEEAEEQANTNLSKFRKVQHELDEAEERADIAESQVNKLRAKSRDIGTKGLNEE
Sequence of bovine cardiac myofibrils (full-length cardiac myosin ATPase in the native sarcomere) (P85100 whole entry partner): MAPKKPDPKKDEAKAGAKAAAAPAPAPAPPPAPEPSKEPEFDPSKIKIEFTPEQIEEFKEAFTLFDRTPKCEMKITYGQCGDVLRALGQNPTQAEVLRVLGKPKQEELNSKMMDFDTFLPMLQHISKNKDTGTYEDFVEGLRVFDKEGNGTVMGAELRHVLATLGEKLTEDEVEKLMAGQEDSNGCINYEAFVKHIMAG
Sequence of bovine cardiac myofibrils (full-length cardiac myosin ATPase in the native sarcomere) (Q3SZE5 whole entry partner): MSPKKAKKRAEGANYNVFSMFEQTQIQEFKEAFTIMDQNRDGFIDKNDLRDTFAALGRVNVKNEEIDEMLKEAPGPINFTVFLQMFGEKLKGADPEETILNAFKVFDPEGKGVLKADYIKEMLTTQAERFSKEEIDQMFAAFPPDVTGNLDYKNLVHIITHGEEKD

One may read the IC50 as the concentration that gives 50% inhibition. Turning to `Cc1c(C(=O)NC2CCc3cc(-c4noc(C(F)F)n4)ccc32)cnn1C` (centres unmarked) [Compound 27, N-(5-(5-(difluoromethyl)-1,2,4-oxadiazol-3-yl)-2,3-dihydro-1H-inden-1-yl)-1,5-dimethyl-1H-pyrazole-4-carboxamide], the “CDMF75 IC15” value worked out at 0.8 µM and the IC50 turned out to be 3.3 µM.

As to `CCc1nc(-c2ccc3c(c2)CC[C@H]3NC(=O)c2cccc(C(=O)OC)c2)no1` [Compound 648, Methyl (R)-3-((5-(5-ethyl-1,2,4-oxadiazol-3-yl)-2,3-dihydro-1H-inden-1-yl)carbamoyl)benzoate], the “CDMF75 IC15” value amounted to 0.4 µM and the IC50 turned out to be 1.3 µM.

On to `Cc1nc(-c2ccc3c(c2)OC[C@H]3NC(=O)c2ccnc(C(C)O)c2)no1` (stereo partly drawn) [Compound 738, 2-(1-hydroxyethyl)-N-((S)-6-(5-methyl-1,2,4-oxadiazol-3-yl)-2,3-dihydrobenzofuran-3-yl)isonicotinamide], for which the “CDMF75 IC15” value is 2.1 µM and the IC50 turned out to be 9.5 µM.

For the molecule `Cc1noc(-c2ccc3c(c2)CC[C@H]3NC(=O)c2cnn(C)c2)n1` [Compound 263, (R)-1-methyl-N-(5-(3-methyl-1,2,4-oxadiazol-5-yl)-2,3-dihydro-1H-inden-1-yl)-1H-pyrazole-4-carboxamide], the “CDMF75 IC15” value turned out to be 2.8 µM and the IC50 came out at 10.5 µM.

`CCc1nc(-c2ccc3c(c2)CC[C@H]3NC(=O)c2cnc(C)s2)no1` [Compound 595, (R)-N-(5-(5-ethyl-1,2,4-oxadiazol-3-yl)-2,3-dihydro-1H-inden-1-yl)-2-methylthiazole-5-carboxamide]: the “CDMF75 IC15” value is 0.3 µM and the IC50 stood at 1 µM.

On to `CCc1nc(-c2ccc3c(c2)CC[C@H]3NC(=O)OC2CCC2)no1` [Compound 321, cyclobutyl (R)-(5-(5-ethyl-1,2,4-oxadiazol-3-yl)-2,3-dihydro-1H-inden-1-yl)carbamate], for which the “CDMF75 IC15” value worked out at 0.4 µM and the IC50 is 1.3 µM.

`O=C(N[C@@H]1CCc2cc(-c3noc(C4CCC4)n3)ccc21)c1nn[nH]n1` [Compound 505, (R)-N-(5-(5-cyclobutyl-1,2,4-oxadiazol-3-yl)-2,3-dihydro-1H-inden-1-yl)-2H-tetrazole-5-carboxamide]: the “CDMF75 IC15” value was determined as 6.5 µM and the IC50 turned out to be 29.2 µM.

As to `CCc1nc(-c2ccc3c(c2)OCCC3NC(=O)c2cnn(C)c2)no1` (centres unmarked) [Compound 534, N-(7-(5-ethyl-1,2,4-oxadiazol-3-yl)chroman-4-yl)-1-methyl-1H-pyrazole-4-carboxamide], the “CDMF75 IC15” value is 2.2 µM and the half-inhibitory concentration (IC50) is 13.5 µM.

For the molecule `CCc1nc(-c2cc(F)c3c(c2)CC[C@H]3NC(=O)c2cnn(C)c2)no1` [Compound 554, (R)-N-(5-(5-ethyl-1,2,4-oxadiazol-3-yl)-7-fluoro-2,3-dihydro-1H-inden-1-yl)-1-methyl-1H-pyrazole-4-carboxamide], the “CDMF75 IC15” value amounted to 0.4 µM and the 50% inhibitory concentration (IC50) stood at 1.5 µM.

As to `CCc1nc(-c2ccc3c(c2)CC[C@H]3NC(=O)OCCOC)no1` [Compound 324, 2-methoxyethyl (R)-(5-(5-ethyl-1,2,4-oxadiazol-3-yl)-2,3-dihydro-1H-inden-1-yl)carbamate], the “CDMF75 IC15” value stood at 0.8 µM and the IC50 is 3.2 µM.

Consider `CCc1nc(-c2ccc3c(c2)CC[C@H]3NC(=O)Cc2ccccc2)no1` [Compound 591, (R)-N-(5-(5-ethyl-1,2,4-oxadiazol-3-yl)-2,3-dihydro-1H-inden-1-yl)-2-phenylacetamide], for which the “CDMF75 IC15” value was found to be 4.4 µM and the IC50 was determined as 9.8 µM.

Consider `CCc1cc(-c2ccc3c(c2)OC[C@H]3NC(=O)c2ccnn2C)no1` [Compound 421, (S)-N-(6-(5-ethylisoxazol-3-yl)-2,3-dihydrobenzofuran-3-yl)-1-methyl-1H-pyrazole-5-carboxamide], for which the “CDMF75 IC15” value came out at 0.3 µM and the half-maximal inhibitory concentration (IC50) turned out to be 0.8 µM.

Turning to `Cc1nc(-c2ccc3c(c2)CC[C@H]3NC(=O)c2cc(C(F)F)ccn2)no1` [Compound 732, (R)-4-(difluoromethyl)-N-(5-(5-methyl-1,2,4-oxadiazol-3-yl)-2,3-dihydro-1H-inden-1-yl)picolinamide], the “CDMF75 IC15” value was 0.7 µM and the IC50 was 3.4 µM.

As to `Cc1ncc(C(=O)NC2COc3cc(-c4noc(C(F)F)n4)ccc32)o1` (centres unmarked) [Compound 205, N-(6-(5-(difluoromethyl)-1,2,4-oxadiazol-3-yl)-2,3-dihydrobenzofuran-3-yl)-2-methyloxazole-5-carboxamide], the “CDMF75 IC15” value was determined as 1.1 µM and the IC50 was 4 µM.

For the molecule `CCc1nc(-c2ccc3c(c2)CC[C@H]3NC(=O)c2ccc(C)cn2)no1` [Compound 642, (R)-N-(5-(5-ethyl-1,2,4-oxadiazol-3-yl)-2,3-dihydro-1H-inden-1-yl)-5-methylpicolinamide], the “CDMF75 IC15” value was found to be 1.4 µM and the half-inhibitory concentration (IC50) amounted to 5.8 µM.

With `COCc1nc(-c2ccc3c(c2)CC[C@H]3NC(=O)c2cc(C)on2)no1` [Compound 690, (R)-N-(5-(5-(methoxymethyl)-1,2,4-oxadiazol-3-yl)-2,3-dihydro-1H-inden-1-yl)-5-methylisoxazole-3-carboxamide], the “CDMF75 IC15” value came to 4.4 µM and the IC50 was found to be 21.3 µM.

`Cc1nc(-c2ccc3c(c2)CC[C@H]3NC(=O)OC2CCC2)no1` [Compound 319, cyclobutyl (R)-(5-(5-methyl-1,2,4-oxadiazol-3-yl)-2,3-dihydro-1H-inden-1-yl)carbamate]: the “CDMF75 IC15” value was 1.3 µM and the IC50 turned out to be 5.3 µM.

For the molecule `CCc1nc(-c2ccc3c(c2)CC[C@H]3NC(=O)c2ccncc2C)no1` [Compound 629, (R)-N-(5-(5-ethyl-1,2,4-oxadiazol-3-yl)-2,3-dihydro-1H-inden-1-yl)-3-methylisonicotinamide], the “CDMF75 IC15” value stood at 2.1 µM and the IC50 was 9.4 µM.

Regarding `Cn1cc(C(=O)N[C@@H]2CCc3cc(-c4noc(C5CC5)n4)ccc32)cn1` [Compound 185, (R)-N-(5-(5-cyclopropyl-1,2,4-oxadiazol-3-yl)-2,3-dihydro-1H-inden-1-yl)-1-methyl-1H-pyrazole-4-carboxamide], the “CDMF75 IC15” value was found to be 0.8 µM and the IC50 was determined as 2.7 µM.

With `CCc1nc(-c2ccc3c(c2)CC[C@H]3NC(=O)c2cnn(C(C)C(=O)O)c2)no1` (stereo partly drawn) [Compound 531, 2-(4-(((R)-5-(5-ethyl-1,2,4-oxadiazol-3-yl)-2,3-dihydro-1H-inden-1-yl)carbamoyl)-1H-pyrazol-1-yl)propanoic acid], the “CDMF75 IC15” value turned out to be 4.1 µM and the IC50 was 25.1 µM.

As to `Cn1cc(C(=O)N[C@@H]2CCc3cc(-c4noc(C5CCC5)n4)ccc32)ccc1=O` [Compound 645, (R)-N-(5-(5-cyclobutyl-1,2,4-oxadiazol-3-yl)-2,3-dihydro-1H-inden-1-yl)-1-methyl-6-oxo-1,6-dihydropyridine-3-carboxamide], the “CDMF75 IC15” value was 1.6 µM and the IC50 amounted to 7 µM.

For `Cc1noc(-c2ccc3c(c2)CC[C@H]3NC(=O)c2cnc(C)n2C)n1` [Compound 702, (R)-1,2-dimethyl-N-(5-(3-methyl-1,2,4-oxadiazol-5-yl)-2,3-dihydro-1H-inden-1-yl)-1H-imidazole-5-carboxamide], the “CDMF75 IC15” value was found to be 2.6 µM and the IC50 came out at 11.7 µM.
